Source: US5488055A, “Substituted N-cycloalkylmethyl-1H-pyrazolo(3,4-b)quinolin-4 amines and compositions and methods of use thereof” (Sanofi Winthrop Inc., priority 1995, dated 1996)
Like-named read-outs stand apart in the source and are kept apart here. One block for each compound: values may come before it.

Assays:
[1] = Crenshaw et al., J. Med. Chem. 1976; cited from earlier work
[2] = system: cGMP-PDE V; test: c-GMP-PDE V inhibitory activity; format: biochemical, various animal species and man
Description: The cGMP-PDE and other PDE isozymes were isolated from cardiovascular tissues (heart and aorta) of various animal species and man by anion-exchange and affinity chromatography as described by Silver et al., Sec. Messeng. Phos. 13:13-25, 1991; PDE activity, in the presence and absence of test compounds was determined essentially as described by Thompson et al., Adv. Cyclic Nucleotide Res. 10:69-92. To determine the potency and selectivity of compounds as PDE inhibitors, compounds are screened for their effect on cyclic nucleotide hydrolysis at 10 μM. […] The IC50 values are calculated from concentration-response curves as described by Tallarida and Murray, Manual of Pharmacologic Calculations with Computer Programs, Procedure 8, Graded Dose-response, pp. 14-19, Springer-Verlag, New York, 1981.

[3] = system: Spontaneously hypertensive rats (SHR); test: Antihypertensive activity in spontaneously hypertensive rats, iv; format: in vivo, rat
Description: After a 2 day recovery from surgery, three baseline blood pressure measurements were made at 5 min intervals in conscious SHR. Compounds to be tested or vehicle were then administered intravenously in a dose-dependent manner (0.3-10 mg base/kg) while arterial pressure was recorded continuously on a polygraph. The mean arterial pressure response was measured 5 minutes after the administration of each dose of the test compound and the next dose given in a cumulative dose fashion. The response to each dose of the test compound was calculated as the difference from the mean of the three baseline measurements.

[4] = system: Spontaneously hypertensive rats; test: Reversal of nitrate-induced tolerance in nitroglycerin tolerant spontaneously hypertensive rats; format: in vivo, rat
Description: Spontaneously hypertensive rats (17-25 weeks of age) were made nitroglycerin tolerant by repeated administration of high doses of nitroglycerin (100 mg/kg, s.c., 3 times/day for 3 consecutive days). To confirm tolerance challenge doses of nitroglycerin were administered intravenously at doses ranging from 1-300 μg/kg and the maximum change in mean arterial pressure (MAP) for each dose was recorded. Groups of tolerant rats were pretreated with the compounds of the invention (tolerant pretreated group) or with vehicle (0.05 N NaOH) (tolerant vehicle pretreated group) intravenously 5-10 minutes prior to administration of challenge doses of nitroglycerin. The administration of challenge doses of nitroglycerin to non-tolerant rats (the non-tolerant group) caused a dose-dependent decrease in MAP of between 10 to 40 mm Hg. […] The area under the dose-MAP curve was calculated for the non-tolerant group and for the tolerant vehicle pretreated group and the tolerant pretreated group. The percent reversal of nitrate-induced tolerance was calculated as follows:
Percent Reversal=(AUCtol-pretreated -AUCtol-veh) /(AUCnontol
AUCnontol =the area under the dose-MAP curve for the non-tolerant group.
AUCtol-veh =the area under the dose-MAP curve for the tolerant vehicle pretreated group.
AUCtol-pretreated =the area under the dose-MAP curve for the tolerant pretreated group. […]

[5] = system: cGMP-PDE V; details: read-out: Km for the hydrolysis of cGMP; isozyme of vascular smooth muscle and renal cells; cited from earlier work
[6] = Rattus norvegicus, 5 min, cumulative dosing, 5 minutes after dose, read-out: % change in mean arterial pressure
[7] = separate experimental runs, first value
[8] = separate experimental runs, second value

SMILES: Cc1nn(C)c2nc3ccccc3c(NCc3cccnc3)c12 [N-(3-pyridinylmethyl)]
activity in the interferon assay [1]: inactive

SMILES: Cc1nn(C)c2nc3ccccc3c(NC34CC5CC(CC(C5)C3)C4)c12 [N-tricyclo[3.3.1.13,7]dec-1-yl]
activity in the interferon assay [1]: inactive

SMILES: CCn1ncc2c(NCC3CCC(CO)CC3)c3ccccc3nc21 (stereo not shown) [6(b), 1-ethyl-N-[(4-hydroxymethylcyclohexyl)methyl]-1H-pyrazolo[3,4-b]quinolin-4-amine]
IC50 [2]: 120 nM
change in vivo at 10 mg/kg [3, 6]: -23%

SMILES: CCn1ncc2c(N[C@@H](C)C3CCCCC3)c3cc(S(C)(=O)=O)ccc3nc21 [37(d), 1-ethyl-6-(methylsulfonyl)-N-[S(+)-1-(cyclohexyl)ethyl]-1H-pyrazolo[3,4-b]quinolin-4-amine]
IC50 [2, 7]: 8.3 nM
IC50 [2, 8]: 11.5 nM
change in vivo at 3 mg/kg [3, 6]: -15%
change in vivo at 10 mg/kg [3, 6]: -18%

SMILES: Cc1nn(C)c2nc3ccccc3c(NC3CC3)c12 [N-cyclopropyl]
activity in the interferon assay [1]: inactive

SMILES: Cc1nn(C)c2nc3ccccc3c(NCCCNC34CC5CC(CC(C5)C3)C4)c12 [N-(1,3-dimethyl-1H-pyrazolo[3,4-b]quinolin-4-yl)-N'-tricyclo[3.3.1.1^3.7]dec-1-yl-1,3-propane diamine]
activity in the interferon assay [1]: inactive

SMILES: O=[N+]([O-])OCC(CO[N+](=O)[O-])O[N+](=O)[O-] [nitroglycerin, reference compound]
hypotensive response to challenge doses of nitroglycerin, in words ([4]; tolerant vehicle pretreated group): significant reduction of the hypotensive response

SMILES: CCn1ncc2c(NCC3CCC(C(=O)OCSC)CC3)c3ccccc3nc21 (stereo not shown) [Example 5, 1-ethyl-N-[[4-(methylthiomethoxycarbonyl)cyclohexyl]methyl]-1H-pyrazolo[3,4-b]quinolin-4-amine]
Percent Inhibition cGMP-PDE V ([2]; 0.1 μM): 4%
Percent Inhibition cGMP-PDE V ([2]; 1 μM): 34%
Percent Inhibition cGMP-PDE V ([2]; 10 μM): 81%

SMILES: Nc1nc2c(ncn2[C@@H]2O[C@@H]3COP(=O)(O)O[C@H]3[C@H]2O)c(=O)[nH]1 [cGMP, cyclic guanosine monophosphate]
Km [5]: 1 µM

SMILES: CCn1ncc2c(NC[C@@H]3CCC[C@H](O)C3)c3cc([N+](=O)[O-])ccc3nc21 (relative stereo) [Example 36(a), 1-ethyl-6-nitro-N-(3-hydroxycyclohexylmethyl)-1 H-pyrazolo[3,4-b]quinolin-4-amine]
IC50 [2]: 10.1 nM

SMILES: CCn1ncc2c(NCC3CCC(C(=O)OC)CC3)c3ccccc3nc21 (stereo not shown) [Example 3, 1-ethyl-N-[(4-methoxycarbonylcyclohexyl)methyl]-1H-pyrazolo[3,4-b]quinolin-4-amine]
IC50 [2]: 300 nM

SMILES: CCn1ncc2c(NCC3(O)CCCCC3)c3cc(OC)ccc3nc21 [Example 32, 1-ethyl-6-methoxy-N-[(1-hydroxycyclohexyl)methyl]-1H-pyrazolo[3,4-b]quinolin-4-amine]
Percent Inhibition cGMP-PDE V ([2]; 0.1 μM): 43%
Percent Inhibition cGMP-PDE V ([2]; 1 μM): 79%
Percent Inhibition cGMP-PDE V ([2]; 10 μM): 96%

SMILES: Cc1nn(C)c2nc3ccccc3c(NCc3ccccc3N(C)C)c12 [N-[[2-(dimethylamino)phenyl]methyl]-1,3-dimethyl-1H-pyrazolo[3,4-b]quinolin-4-amines]
activity in the interferon assay [1]: inactive

SMILES: CCn1ncc2c(N[C@@H](C)C3CCCCC3)c3cc([S+](C)[O-])ccc3nc21 (single isomer, unassigned) [Example 48(d), 1-ethyl-6-(methylsulfinyl)-N-[S(+)-1-(cyclohexyl)ethyl]-1H-pyrazolo[3,4-b]quinolin-4-amine]
IC50 [2]: 4.2 nM

SMILES: CCn1ncc2c(N[C@@H](C)C3CCCCC3)c3cc(-c4noc(C)n4)ccc3nc21 [47(c)]
IC50 [2]: 23 nM

SMILES: CCn1ncc2c(NCC3CCC(O)CC3)c3cc(OC)ccc3nc21 (stereo not shown) [19(d), 1-ethyl-6-methoxy-N-(4-hydroxycyclohexylmethyl)-1H-pyrazolo[3,4-b]quinolin-4-amine]
Percent Inhibition cGMP-PDE V ([2]; 0.1 μM): 28%

SMILES: CCn1ncc2c(N[C@@H](C)C3CCCCC3)c3cc([N+](=O)[O-])ccc3nc21 [Example 34, 1-ethyl-6-nitro-N-[S(+)-1-(cyclohexyl)ethyl]-1H-pyrazolo[3,4-b]quinolin-4-amine]
Percent (%) Reversal of Nitroglycerin-induced Tolerance ([4]; 1.0 mg/kg, intravenously 5-10 minutes prior to nitroglycerin challenge): 44%
IC50 [2, 7]: 0.22 nM
IC50 [2, 8]: 0.16 nM
IC50 ([2]; separate experimental runs, third value): 0.08 nM

SMILES: CCn1ncc2c(NC[C@@H]3CCC[C@@H](O)C3)c3cc([N+](=O)[O-])ccc3nc21 (relative stereo) [Example 36(b), 1-ethyl-6-nitro-N-(3-hydroxycyclohexylmethyl)-1H-pyrazolo[3,4-b]quinolin-4-amine]
IC50 [2]: 19.3 nM

SMILES: CCn1ncc2c(N[C@@H](C)C3CCCCC3)c3cc(-n4cc(C)cn4)ccc3nc21 [Example 50, 1-ethyl-6-(4-methyl-1-pyrazolyl)-N-[S(+)-1-(cyclohexyl)ethyl]-1H-pyrazolo[3,4-b]quinolin-4-amine]
IC50 [2]: 9.1 nM

Now from value to compound, other results behind:

IC50 [2]: 38 nM
SMILES: CCn1ncc2c(NCC3CCCCC3)c3ccc(C(=O)O)cc3nc21 [23(c), 1-ethyl-7-carboxy-N-(cyclohexylmethyl)-1H-pyrazolo[3,4-b]quinolin-4-amine]
change in vivo at 3 mg/kg [3, 6]: -7%

IC50 [2]: 91 nM
SMILES: CCn1ncc2c(NCC3CCCCC3)c3cc(OCC4CO4)ccc3nc21 (stereo not shown) [Example 21, 1-ethyl-6-(2,3-epoxypropoxy)-N-(cyclohexylmethyl)-1H-pyrazolo[3,4-b]quinolin-4amine]
change in vivo at 10 mg/kg [3, 6]: -12%

IC50 [2]: 83 nM
SMILES: CCn1ncc2c(NCC3CCCCC3)c3ccccc3nc21 [1(c), 1-ethyl-N-(cyclohexylmethyl)-1H-pyrazolo[3,4-b]quinolin-4-amine]
change in vivo at 10 mg/kg [3, 6]: -15%

IC50 [2]: 36 nM
SMILES: CCn1ncc2c(NCC3CCCCC3)c3cc(O)ccc3nc21 [Example 8, 1-ethyl-6-hydroxy-N-(cyclohexylmethyl)-1H-pyrazolo[3,4-b]quinolin-4-amine]
% change in mean arterial pressure or ED25, result in words ([3]; 0.3-10 mg base/kg): Inactive

IC50 [2]: 42 nM
SMILES: CCn1ncc2c(NCC3CCCCC3)c3cc(OCC(=O)O)ccc3nc21 [Example 13, 1-ethyl-6-(carboxymethoxy)-N-(cyclohexymethyl)-1H-pyrazolo[3,4-b]quinolin-4-amine]
change in vivo at 1 mg/kg ([3]; Rattus norvegicus, 5 min, 1 mg/kg, cumulative dosing, 5 minutes after dose, read-out: % change in mean arterial pressure): -10%

IC50 [2]: 74 nM
SMILES: CCn1ncc2c(NCC3CCCCC3)c3cc(OC(C)C(=O)O)ccc3nc21 (stereo not shown) [Example 22, 1-ethyl-6-(1-carboxyethoxy)-N-(cyclohexylmethyl)-1H-pyrazolo[3,4-b]quinolin-4-amine]
change in vivo at 10 mg/kg [3, 6]: -7%

IC50 [2]: 33 nM
SMILES: CCn1ncc2c(NCC3CCCCC3)c3cc(OC)ccc3nc21 [7(d), 1-ethyl-6-methoxy-N-(cyclohexylmethyl)-1H-pyrazolo[3,4-b]quinolin-4-amine]
change in vivo at 3 mg/kg [3, 6]: -16%

IC50 [2, 7]: 2.6 nM
IC50 [2, 8]: 5.2 nM
SMILES: CCn1ncc2c(N[C@@H](C)C3CCCCC3)c3cc(OC)ccc3nc21 [Example 26, 1-ethyl-6-methoxy-N-[S(+)-1-(cyclohexyl)ethyl]-1H-pyrazolo[3,4-b]quinolin-4-amine]

IC50 [2]: 1.5 nM
SMILES: CCn1ncc2c(NCC3CCCCC3)c3cc([N+](=O)[O-])ccc3nc21 [15(c), 1-ethyl-6-nitro-N-(cyclohexylmethyl) -1H-pyrazolo[3,4-b]quinolin-4-amine]
change in vivo at 3 mg/kg [3, 6]: -18%

IC50 [2]: 18 nM
SMILES: CCn1ncc2c(NCC3CCCCC3)c3cc([S+](C)[O-])ccc3nc21 (stereo not shown) [Example 49, 1-ethyl-6-(methylsulfinyl)-N-(cyclohexylmethyl)-1H-pyrazolo[3,4-b]quinolin-4-amine]

IC50 [2]: 130 nM
SMILES: CCn1ncc2c(NCC3CCCCC3)c3cc(OCC(O)CO)ccc3nc21 (stereo not shown) [17(b), 1-ethyl-6-(2,3-dihydroxypropoxy)-N-(cyclohexylmethyl)-1H-pyrazolo[3,4-b]quinolin-4-amine]
change in vivo at 10 mg/kg [3, 6]: -6%

IC50 [2]: 300 nM
SMILES: CCn1ncc2c(NCC3CCCCC3)c3cc(N)ccc3nc21 [Example 20, 1-ethyl-6-amino-N-(cyclohexylmethyl)-1H-pyrazolo[3,4-b]quinolin-4-amine]
